According to the NIST ThermoML archive (doi:10.1021/je900048r):
Numbers after ± are expanded uncertainties.

Test: xn = mol fraction of the nth substance listed
Details: Liquid, Other PVT measurement

CCCCn1cc[n+](C)c1.F[B-](F)(F)F [1-butyl-3-methylimidazolium tetrafluoroborate] + CC#N
mass density [kg/m3]
Details | x1 = 0.1 | x1 = 0.2 | x1 = 0.3 | x1 = 0.4 | x1 = 0.5 | x1 = 0.6 | x1 = 0.6999 | x1 = 0.7998 | x1 = 0.8993 | x1 = 1
313.15 K, 200 kPa | 893 ± 9 | 980 ± 10 | 1040 ± 10 | 1077 ± 11 | 1105 ± 11 | 1127 ± 11 | 1146 ± 12 | 1161 ± 12 | 1175 ± 12 | 1185 ± 12
313.15 K, 600 kPa | 894 ± 9 | 981 ± 10 | 1041 ± 10 | 1078 ± 11 | 1106 ± 11 | 1127 ± 11 | 1147 ± 12 | 1162 ± 12 | 1175 ± 12 | 1186 ± 12
313.15 K, 1000 kPa | 895 ± 9 | 982 ± 10 | 1041 ± 10 | 1078 ± 11 | 1106 ± 11 | 1128 ± 11 | 1147 ± 12 | 1162 ± 12 | 1175 ± 12 | 1186 ± 12
313.15 K, 1400 kPa | 895 ± 9 | 982 ± 10 | 1041 ± 10 | 1079 ± 11 | 1106 ± 11 | 1128 ± 11 | 1147 ± 12 | 1162 ± 12 | 1175 ± 12 | 1186 ± 12
313.15 K, 1800 kPa | 895 ± 9 | 983 ± 10 | 1041 ± 10 | 1079 ± 11 | 1106 ± 11 | 1128 ± 11 | 1147 ± 12 | 1163 ± 12 | 1176 ± 12 | 1187 ± 12
313.15 K, 2000 kPa | 896 ± 9 | 983 ± 10 | 1042 ± 10 | 1079 ± 11 | 1107 ± 11 | 1129 ± 11 | 1148 ± 12 | 1163 ± 12 | 1176 ± 12 | 1187 ± 12
353.15 K, 200 kPa | 857 ± 9 | 947 ± 10 | 1008 ± 10 | 1047 ± 10 | 1076 ± 11 | 1098 ± 11 | 1118 ± 11 | 1134 ± 11 | 1148 ± 12 | 1159 ± 12
353.15 K, 600 kPa | 858 ± 9 | 948 ± 10 | 1009 ± 10 | 1047 ± 10 | 1076 ± 11 | 1099 ± 11 | 1119 ± 11 | 1134 ± 11 | 1148 ± 12 | 1160 ± 12
353.15 K, 1000 kPa | 858 ± 9 | 948 ± 10 | 1009 ± 10 | 1048 ± 11 | 1077 ± 11 | 1099 ± 11 | 1119 ± 11 | 1134 ± 11 | 1148 ± 12 | 1160 ± 12
353.15 K, 1400 kPa | 858 ± 9 | 948 ± 10 | 1010 ± 10 | 1048 ± 11 | 1077 ± 11 | 1100 ± 11 | 1119 ± 11 | 1134 ± 11 | 1149 ± 12 | 1160 ± 12
353.15 K, 1800 kPa | 859 ± 9 | 949 ± 10 | 1010 ± 10 | 1049 ± 11 | 1077 ± 11 | 1100 ± 11 | 1120 ± 11 | 1134 ± 11 | 1149 ± 12 | 1161 ± 12
353.15 K, 2000 kPa | 859 ± 9 | 949 ± 10 | 1010 ± 10 | 1049 ± 11 | 1078 ± 11 | 1100 ± 11 | 1120 ± 11 | 1135 ± 11 | 1149 ± 12 | 1161 ± 12
393.15 K, 600 kPa | 820 ± 8 | 914 ± 9 | 978 ± 10 | 1018 ± 10 | 1048 ± 11 | 1072 ± 11 | 1092 ± 11 | 1108 ± 11 | 1123 ± 11 | 1135 ± 11
393.15 K, 1000 kPa | 821 ± 8 | 915 ± 9 | 978 ± 10 | 1018 ± 10 | 1048 ± 11 | 1072 ± 11 | 1092 ± 11 | 1108 ± 11 | 1123 ± 11 | 1135 ± 11
393.15 K, 1400 kPa | 821 ± 8 | 915 ± 9 | 979 ± 10 | 1019 ± 10 | 1048 ± 11 | 1073 ± 11 | 1092 ± 11 | 1108 ± 11 | 1123 ± 11 | 1135 ± 11
393.15 K, 1800 kPa | 822 ± 8 | 915 ± 9 | 979 ± 10 | 1019 ± 10 | 1049 ± 11 | 1073 ± 11 | 1093 ± 11 | 1108 ± 11 | 1123 ± 11 | 1136 ± 11
393.15 K, 2000 kPa | 822 ± 8 | 916 ± 9 | 979 ± 10 | 1019 ± 10 | 1049 ± 11 | 1073 ± 11 | 1093 ± 11 | 1108 ± 11 | 1124 ± 11 | 1136 ± 11
433.15 K, 1000 kPa | 781 ± 8 | 881 ± 9 | 947 ± 9 | 989 ± 10 | 1021 ± 10 | 1045 ± 10 | 1066 ± 11 | 1082 ± 11 | 1098 ± 11 | 1112 ± 11
433.15 K, 1400 kPa | 782 ± 8 | 882 ± 9 | 948 ± 10 | 990 ± 10 | 1021 ± 10 | 1045 ± 10 | 1066 ± 11 | 1082 ± 11 | 1098 ± 11 | 1112 ± 11
433.15 K, 1800 kPa | 783 ± 8 | 882 ± 9 | 948 ± 10 | 990 ± 10 | 1021 ± 10 | 1046 ± 10 | 1067 ± 11 | 1083 ± 11 | 1098 ± 11 | 1113 ± 11
433.15 K, 2000 kPa | 783 ± 8 | 882 ± 9 | 949 ± 10 | 990 ± 10 | 1021 ± 10 | 1046 ± 10 | 1067 ± 11 | 1083 ± 11 | 1099 ± 11 | 1113 ± 11
473.15 K, 1800 kPa | 741 ± 7 | 847 ± 9 | 917 ± 9 | 960 ± 10 | 993 ± 10 | 1018 ± 10 | 1040 ± 10 | 1057 ± 11 | 1072 ± 11 | 1086 ± 11
473.15 K, 2000 kPa | 742 ± 7 | 848 ± 9 | 917 ± 9 | 960 ± 10 | 993 ± 10 | 1019 ± 10 | 1041 ± 10 | 1057 ± 11 | 1073 ± 11 | 1087 ± 11

CCCCn1cc[n+](C)c1.F[B-](F)(F)F [1-butyl-3-methylimidazolium tetrafluoroborate] + CCO
mass density [kg/m3]
Details | x1 = 0.2 | x1 = 0.3 | x1 = 0.3999 | x1 = 0.4998 | x1 = 0.6 | x1 = 0.6996 | x1 = 0.8001 | x1 = 0.8998 | x1 = 1
313.15 K, 200 kPa | 965 ± 10 | 1022 ± 10 | 1071 ± 11 | 1098 ± 11 | 1121 ± 11 | 1142 ± 11 | 1158 ± 12 | 1173 ± 12 | 1185 ± 12
313.15 K, 600 kPa | 966 ± 10 | 1023 ± 10 | 1072 ± 11 | 1098 ± 11 | 1122 ± 11 | 1142 ± 11 | 1158 ± 12 | 1174 ± 12 | 1186 ± 12
313.15 K, 1000 kPa | 966 ± 10 | 1023 ± 10 | 1072 ± 11 | 1098 ± 11 | 1122 ± 11 | 1143 ± 11 | 1159 ± 12 | 1174 ± 12 | 1186 ± 12
313.15 K, 1400 kPa | 966 ± 10 | 1024 ± 10 | 1072 ± 11 | 1099 ± 11 | 1123 ± 11 | 1144 ± 11 | 1159 ± 12 | 1174 ± 12 | 1186 ± 12
313.15 K, 1800 kPa | 967 ± 10 | 1024 ± 10 | 1073 ± 11 | 1099 ± 11 | 1123 ± 11 | 1144 ± 11 | 1160 ± 12 | 1174 ± 12 | 1187 ± 12
313.15 K, 2000 kPa | 967 ± 10 | 1024 ± 10 | 1073 ± 11 | 1102 ± 11 | 1123 ± 11 | 1144 ± 11 | 1160 ± 12 | 1175 ± 12 | 1187 ± 12
353.15 K, 200 kPa | 935 ± 9 | 993 ± 10 | 1042 ± 10 | 1070 ± 11 | 1094 ± 11 | 1116 ± 11 | 1131 ± 11 | 1147 ± 12 | 1159 ± 12
353.15 K, 600 kPa | 935 ± 9 | 993 ± 10 | 1042 ± 10 | 1071 ± 11 | 1094 ± 11 | 1116 ± 11 | 1132 ± 11 | 1147 ± 12 | 1160 ± 12
353.15 K, 1000 kPa | 935 ± 9 | 993 ± 10 | 1043 ± 10 | 1071 ± 11 | 1095 ± 11 | 1116 ± 11 | 1132 ± 11 | 1147 ± 12 | 1160 ± 12
353.15 K, 1400 kPa | 936 ± 9 | 994 ± 10 | 1043 ± 10 | 1071 ± 11 | 1095 ± 11 | 1116 ± 11 | 1133 ± 11 | 1147 ± 12 | 1160 ± 12
353.15 K, 1800 kPa | 936 ± 9 | 994 ± 10 | 1043 ± 10 | 1071 ± 11 | 1095 ± 11 | 1116 ± 11 | 1133 ± 11 | 1148 ± 12 | 1161 ± 12
353.15 K, 2000 kPa | 937 ± 9 | 994 ± 10 | 1043 ± 10 | 1072 ± 11 | 1096 ± 11 | 1117 ± 11 | 1133 ± 11 | 1148 ± 12 | 1161 ± 12
393.15 K, 600 kPa | 904 ± 9 | 964 ± 10 | 1014 ± 10 | 1042 ± 10 | 1067 ± 11 | 1090 ± 11 | 1106 ± 11 | 1122 ± 11 | 1135 ± 11
393.15 K, 1000 kPa | 904 ± 9 | 965 ± 10 | 1014 ± 10 | 1043 ± 10 | 1068 ± 11 | 1090 ± 11 | 1106 ± 11 | 1122 ± 11 | 1135 ± 11
393.15 K, 1400 kPa | 905 ± 9 | 965 ± 10 | 1015 ± 10 | 1043 ± 10 | 1068 ± 11 | 1090 ± 11 | 1107 ± 11 | 1122 ± 11 | 1135 ± 11
393.15 K, 1800 kPa | 905 ± 9 | 965 ± 10 | 1015 ± 10 | 1044 ± 10 | 1069 ± 11 | 1091 ± 11 | 1107 ± 11 | 1123 ± 11 | 1136 ± 11
393.15 K, 2000 kPa | 905 ± 9 | 966 ± 10 | 1015 ± 10 | 1044 ± 10 | 1069 ± 11 | 1091 ± 11 | 1108 ± 11 | 1123 ± 11 | 1136 ± 11
433.15 K, 1400 kPa | 871 ± 9 | 935 ± 9 | 987 ± 10 | 1016 ± 10 | 1041 ± 10 | 1065 ± 11 | 1081 ± 11 | 1097 ± 11 | 1112 ± 11
433.15 K, 1800 kPa | 872 ± 9 | 935 ± 9 | 987 ± 10 | 1017 ± 10 | 1042 ± 10 | 1066 ± 11 | 1082 ± 11 | 1097 ± 11 | 1113 ± 11
433.15 K, 2000 kPa | 872 ± 9 | 935 ± 9 | 987 ± 10 | 1017 ± 10 | 1042 ± 10 | 1066 ± 11 | 1082 ± 11 | 1098 ± 11 | 1113 ± 11
